This note sets out measurements from ChEMBL document CHEMBL1201862, “PubChem BioAssay data set” (2004).

Holding throughout (test): NCI tumour cell line growth inhibition, 48 h
Assay [1] has as its system SF-539.
Assay [2] has as its system MOLT-4.
The test system of assay [3] is DU-145.
The subject of assay [4] is NCI-H23.
Assay [5] relates to LOX IMVI.
Assay [6] relates to M14.
Assay [7] has as its system A498.
Assay [8] deals with PC-3.
Assay [9] has as its system MCF7.
Assay [10] relates to RXF 393.
The test system of assay [11] is HCT-116.
Assay [12] deals with ACHN.
The test system of assay [13] is SW-620.
The subject of assay [14] is Malme-3M.
The test system of assay [15] is SN12C.
Assay [16] relates to COLO 205.
For assay [17], the system named is IGROV-1.
Assay [18] deals with SK-MEL-2.
In assay [19] the test system is KM12.
Assay [20] has as its system SNB-19.

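Five compound concentrations were applied to cells in 96-well plates for 48 hours; endpoints were derived by simple linear interpolation of the resulting dose-response curve. GI50 marks 50% less growth.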 The source made the active and inactive calls. Cut-off read from the data, not from the text of the source: active = GI50 up to about 1.1 µM and inactive = higher.

For the compound `COc1ccc(CC2C(=O)NC(C)C(=O)N(C)C3Cc4ccc(cc4)Oc4cc(ccc4O)CC(C(=O)NC(C)C(=O)NC(C)C(=O)N2C)N(C)C3=O)cc1` (centres undefined), the GI50 was 0.0175 µM (active) in assay [1]; 0.0175 µM (active) in [2]; < 0.0001 µM (active) in [3]; 0.0175 µM (active) in [4]; 0.0409 µM (active) in assay [5]; 0.0027 µM (active) in [6]. Also, the GI50 in assay [7] was 0.0175 µM (active); in assay [8] it was < 0.0001 µM (active); in assay [9], 0.0175 µM (active); in [10], 0.0175 µM (active); in [11], 0.0175 µM (active); in [12] it was 0.0738 µM (active). For the same compound, the GI50 in assay [13] was 0.0177 µM (active); in assay [14] it was 0.0175 µM (active); in assay [15], 0.0175 µM (active); in [16], 0.0175 µM (active); in assay [17], 0.0175 µM (active).
Regarding `Nc1ncnc2c1ncn2Cc1cccc(CCl)c1`, the GI50 in [1] is 14.8 µM (inactive); in [2], 15.2 µM (inactive); in assay [3], 13.8 µM (inactive); in [18] it was 15 µM (inactive); in [4], 12.6 µM (inactive); in assay [19], 15.1 µM (inactive). Also, the GI50 is 20.1 µM (inactive) in assay [5]; 14.1 µM (inactive) in [6]; 15.2 µM (inactive) in [7]; 14.7 µM (inactive) in assay [8]; 10 µM (inactive) in [9]; 3.88 µM (inactive) in assay [10]. For the same compound, the GI50 in assay [11] is 10.4 µM (inactive); in [12], 14.8 µM (inactive); in [13], 12.4 µM (inactive); in assay [14] it was 17.9 µM (inactive); in [15] it was 15.1 µM (inactive); in assay [17], 16.3 µM (inactive).
With `COc1ccc(S(=O)(=O)n2c3c(c4ccccc42)[C@@H]2[C@@H](CCCN2C(=O)C[S+]([O-])c2ccc(C)cc2)[C@H](Cl)C3)cc1` (some centres undefined), the GI50 in assay [1], in assay [2], in assay [3], in assay [18], in assay [4] and in [19] was > 100 µM (inactive) in each case. Also, the GI50 in assay [5], in [6], in assay [7], in assay [8], in [9] and in assay [10] was > 100 µM (inactive) each time. The GI50 in assay [11] was > 100 µM (inactive); in [13] it was > 100 µM (inactive); in [14] it was > 100 µM (inactive); in assay [15] it was > 100 µM (inactive); in assay [16], > 100 µM (inactive); in assay [17] it was 1.51 µM (inactive). Also, the GI50 in assay [20] is > 100 µM (inactive).
`CC(CO)CCNc1ncnc2c1ncn2CCC#N` (centres undefined): the GI50 in assay [1], in assay [2], in [3], in assay [4], in [19] and in assay [5] was > 100 µM (inactive) in each case. The GI50 in [6], in [7], in assay [8], in assay [9], in assay [10] and in [11] was > 100 µM (inactive) in each case. Also, the GI50 in assay [12], in assay [13], in assay [14], in assay [15], in assay [16] and in assay [17] was > 100 µM (inactive) in each case. Further, in assay [20], the GI50 was > 100 µM (inactive).
Regarding `O=C(CC(=O)N(C(=O)c1ccccc1)c1ccc(Cl)cc1)N/N=C\c1cc(/N=N/c2ccccc2Cl)ccc1O`, the GI50 was 34.8 µM (inactive) in assay [1]; 18.7 µM (inactive) in assay [2]; > 100 µM (inactive) in assay [3]; > 100 µM (inactive) in assay [4]; 26.3 µM (inactive) in assay [19]; > 100 µM (inactive) in assay [5]. Besides, the GI50 is > 100 µM (inactive) in assay [6]; 31.3 µM (inactive) in assay [7]; > 100 µM (inactive) in [8]; > 100 µM (inactive) in assay [9]; 29.8 µM (inactive) in assay [10]; 75 µM (inactive) in assay [11]. Also, the GI50 in assay [12] was > 100 µM (inactive); in [13], > 100 µM (inactive); in [14] it was > 100 µM (inactive); in assay [15], 42.5 µM (inactive); in assay [16], > 100 µM (inactive); in assay [17], > 100 µM (inactive). The GI50 in [20] is 18.2 µM (inactive).
For `O=S(=O)(O)C1CCC(O)C2NCCCC21` (centres undefined), the GI50 in [1], in assay [2], in [3], in assay [18], in [19] and in [5] was > 100 µM (inactive) in each case. Moreover, the GI50 in assay [6], in assay [7], in assay [8], in [9], in assay [10] and in [11] was > 100 µM (inactive) in each case. Also, the GI50 in assay [12], in assay [13], in assay [14], in assay [15], in assay [16] and in assay [17] was > 100 µM (inactive) each time. Besides, the GI50 in assay [20] is > 100 µM (inactive).
On to `CC1ON2CCCC2[C@H]1C(=O)N1C2CC3CCC2(CS1(=O)=O)C3(C)C` (some centres undefined), for which the GI50 in assay [1], in assay [2], in assay [3], in [18], in assay [4] and in assay [19] was > 100 µM (inactive) each time. In addition, the GI50 in assay [5], in assay [6], in assay [7], in assay [8], in assay [9] and in assay [10] was > 100 µM (inactive) each time. For the same compound, the GI50 in [11], in assay [12], in [13], in assay [14], in assay [15] and in [16] was > 100 µM (inactive) each time. Also, the GI50 in [17] is > 100 µM (inactive).
On to `C[C@H](N)C(=O)N[C@@H]1[C@H]2C(=C(O)C[C@@H](O)[C@@H]2O)C(=O)O[C@]1(C)C(Cl)Cl` [BACTOBOLIN], for which the GI50 in [1] was 0.229 µM (active); in assay [3], 0.182 µM (active); in assay [18] it was 0.222 µM (active); in [4], 0.183 µM (active); in [19] it was 0.172 µM (active); in [5], 0.0946 µM (active). The GI50 in assay [6] is 0.128 µM (active); in [7], 0.329 µM (active); in assay [8], 0.232 µM (active); in assay [9] it was 0.146 µM (active); in [10], 0.17 µM (active); in assay [11], 0.145 µM (active). For the same compound, the GI50 in assay [12] was 0.176 µM (active); in [13], 0.145 µM (active); in assay [14] it was 0.278 µM (active); in assay [15] it was 0.164 µM (active); in assay [16] it was 0.105 µM (active); in [17] it was 0.361 µM (active). Further, the GI50 in assay [20] was 0.167 µM (active).
